In patent publication US20250041327A1, “COMPOSITIONS FOR PREVENTING OR FOR REDUCING RISK OF […] INFECTIOUS DISEASES” (priority 2021, published 2025):

Experiments:
[1] = tested on: ZO-1; type: cell-based, human; conditions: A549 cells, EPS pre-treatment study; BXA 250 nM; viral-infection vs non-viral infection group
[2] = tested on: occludin; type: cell-based, human; conditions: A549 cells, EPS pre-treatment study; BXA 250 nM; viral-infection vs non-viral infection group
[3] = tested on: claudin-1; type: cell-based, human; conditions: A549 cells, EPS pre-treatment study; BXA 250 nM; viral-infection vs non-viral infection group
[4] = tested on: E-cadherin; type: cell-based, human; conditions: A549 cells, EPS pre-treatment study; BXA 250 nM; viral-infection vs non-viral infection group
[5] = tested on: ICAM-1; type: cell-based, human; conditions: infected A549 cells, 1×10^5 pfu virus; BXA 250 nM
[6] = tested on: VCAM-1; type: cell-based, human; conditions: infected A549 cells, 1×10^5 pfu virus; BXA 250 nM
[7] = tested on: fibronectin; type: cell-based, human; conditions: infected A549 cells, 1×10^5 pfu virus; BXA 250 nM
[8] = tested on: PAF-r; type: cell-based, human; conditions: infected A549 cells, 1×10^5 pfu virus; BXA 250 nM
[9] = tested on: E-selectin; type: cell-based, human; conditions: infected A549 cells, 1×10^5 pfu virus; BXA 250 nM
[10] = tested on: S. aureus strain ATCC 29213; type: cell-based; conditions: 1×10^5 pfu virus, 1×10^5 cfu S. aureus for 1 hour; 400 μg EPS or 250 nM BXA per well; compared with virus-infected cells without treatment
[11] = tested on: CEACAM-1; assay: CEACAM-1 mRNA expression in virus-infected A549 cells (quantitative RT-PCR); conditions: 1×10^5 pfu virus, 1 hour with EPS then 6 hours, BXA 250 nM, compared with virus-infected cells

Structure (SMILES): O=C1c2c(O)c(=O)ccn2N([C@@H]2c3ccccc3SCc3c2ccc(F)c3F)[C@@H]2COCCN12 [BXA, baloxavir acid]
- ZO-1 mRNA expression [1]: no difference
- occludin mRNA expression [2]: no difference
- claudin-1 mRNA expression [3]: no difference
- E-cadherin mRNA expression [4]: no difference
- ICAM-1 mRNA expression [5]: not changed
- VCAM-1 mRNA expression [6]: not changed
- fibronectin mRNA expression [7]: not changed
- PAF-r mRNA expression [8]: not changed
- E-selectin mRNA expression [9]: not changed
- numbers of adhered bacteria on virus-infected A549 cells [10]: did not decrease
- CEACAM-1 mRNA expression increased by influenza virus infection [11]: significantly reduced
